Measured values taken from ChEMBL document CHEMBL4673211, “A new Chlorin formulation promotes efficient photodynamic action in choriocapillaris of rabbit's eyes” (Bioorg Med Chem Lett, 2018).
The source made the active and inactive calls. The rule behind the calls is not given here.

Key:
[1] = Toxicity in New Zealand rabbit assessed as effect on hepatic profile pretreated with compound at 6 mg/m2, iv followed by diode laser irradiation at 650 nm measured after 24 hrs by fluorescein angiogram; format: organism-based, Oryctolagus cuniculus; settings: in vivo, 0.65 µM, dose 6 mg/m2, time 24 hrs
[2] = Toxicity in New Zealand rabbit assessed as effect on renal profile pretreated with compound at 6 mg/m2, iv followed by diode laser irradiation at 650 nm measured after 24 hrs by fluorescein angiogram; format: organism-based, Oryctolagus cuniculus; settings: in vivo, 0.65 µM, dose 6 mg/m2, time 24 hrs
[3] = Toxicity in New Zealand rabbit assessed as retinal damage in left eye pretreated with compound at 6 mg/m2, iv followed by diode laser irradiation at 650 nm measured after 24 hrs by fluorescein angiogram; format: organism-based, Oryctolagus cuniculus; settings: in vivo, 0.65 µM, dose 6 mg/m2, time 24 hrs
[4] = system: Oryctolagus cuniculus; assay: Photodynamic activity in New Zealand rabbit assessed as outer blood-retinal barrier breakdown causing hyper-fluorescence in left eye pretreated with compound at 6 mg/m2, iv followed by diode laser irradiation at 650 nm measured after 24 hrs by fluorescein angiogram; format: functional, organism-based; settings: dose 6.0 mg/m2, time 24.0 hrs
[5] = system: Oryctolagus cuniculus; assay: Photodynamic activity in New Zealand rabbit assessed as vascular occlusion causing hypo-fluorescent lesion in left eye pretreated with compound at 6 mg/m2, iv followed by diode laser irradiation at 650 nm measured after 24 hrs by fluorescein angiogram; format: functional, organism-based; settings: dose 6.0 mg/m2, time 24.0 hrs
[6] = system: Oryctolagus cuniculus; assay: Photodynamic activity in New Zealand rabbit assessed as blood flow obstruction causing hypo-fluorescent lesion in left eye pretreated with compound at 6 mg/m2, iv followed by diode laser irradiation at 650 nm measured after 24 hrs by fluorescein angiogram; format: functional, organism-based; settings: dose 6.0 mg/m2, time 24.0 hrs
[7] = system: Oryctolagus cuniculus; assay: Photodynamic activity in New Zealand rabbit assessed as appearance of pallor area of one qaurter-diameter disc shaped in left eye pretreated with compound at 6 mg/m2, iv followed by diode laser irradiation at 650 nm measured after 24 hrs by retinography; format: functional, organism-based; settings: dose 6.0 mg/m2, time 24.0 hrs
[8] = system: Oryctolagus cuniculus; assay: Photodynamic activity in New Zealand rabbit assessed as induction of choriocapillaris occlusion in left eye pretreated with compound at 6 mg/m2, iv followed by diode laser irradiation at 650 nm by indirect ophthalmoscopy; format: functional, organism-based
[9] = Induction of singlet oxygen generation in 9:1 acetonitrile/water mixture assessed as singlet oxygen quantum yield irradiated with 532 nanometer laser light; format: functional
[10] = Induction of singlet oxygen generation assessed as singlet oxygen quantum yield using liposome formulated compound; format: functional
[11] = Photoactivity of the compound
[12] = Aggregation property of the compound in toluene at 130 degreeC under inert atmosphere; format: physicochemical

Activity [12]	SMILES	Activity [1]	Activity [2]	Activity [3]	Activity [4]	Activity [5]	Activity [6]	Activity [7]	Activity [8]	Activity [9]	Activity [10]	Activity [11]
Not Active	C=Cc1c(C)c2cc3nc(cc4[nH]c(cc5nc(cc1[nH]2)[C@@]1(C)C5=CC[C@H]2C(=O)N(c5ccc([N+](=O)[O-])cc5)C(=O)[C@H]21)c(C)c4CCC(=O)OC)C(CCC(=O)OC)=C3C	Non-Toxic	Non-Toxic	Non-Toxic	Active	Active	Active	Active	Active	0.6	0.5	Active
Not Active	C=CC1=C(C)c2cc3[nH]c(cc4nc(cc5[nH]c(cc1n2)c(C)c5CCC(=O)OC)C(CCC(=O)OC)=C4C)[C@@]1(C)C3=CCC2C(=O)N(c3ccc([N+](=O)[O-])cc3)C(=O)C21 (some centres undefined)	Non-Toxic	Non-Toxic	Non-Toxic	Active	Active	Active	Active	Active	0.6	0.5	Active
